According to patent publication US20240352309A1, “FLUORESCENT DYE, AND PREPARATION METHOD THEREFOR AND USE THEREOF” (FLUORESCENCE DIAGNOSIS (SHANGHAI) BIOTECH COMPANY LTD., priority 2021, published 2024):

Assays:
[1] = Fluorescence emission in glycerol and methanol (Test Example 1); type: physicochemical
Procedure: The fluorescent dye (molecular rotors) prepared in Examples dye1-dye42 were dissolved in DMSO each to prepare a mother solution with a concentration of 1×10^−2 M, and each mother solution was added to glycerol and methanol respectively and was mixed well, and a solution with a final concentration of 1×10^−5 M was prepared.

[2] = Emission spectra in glycerol, wavelength adjustment (Test Example 3); type: physicochemical; conditions: 1×10^−5 M, dye13 vs dye12, ring sulfur turned into nitrogen
Procedure: The dye5, dye6, dye11, dye12, dye13, dye14, dye39 and dye42 were added into glycerol to prepare a solution with a final concentration of 1×10^−5 M, fluorescent dyes were excited with corresponding maximum excitation wavelength so as to obtain the emission spectra, and some of the emission spectra were normalized.

[3] = test system: RNA aptamer in stable cell line (293T/17); test: Flow detection of cells expressing RNA aptamer (Test Example 6); type: cell-based; conditions: 1 μM dye in PBS, 5 minutes

Fluorescence intensity ratio in glycerol and methanol ([1]; 1×10^−5 M in glycerol vs methanol, maximum excitation wavelength): 874
Emission wavelength ([1]; 1×10^−5 M, excited at maximum excitation wavelength of each dye): 630 nm
shortening of emission wavelength [2]: 20 nm
SMILES: CN(CCO)c1cc2sc(/C=C3\NC(=S)NC3=O)cc2s1 [dye13]
dye background fluorescence before binding [3]: very low
fluorescence after binding to RNA aptamer in cells [3]: notably activated
